Measured values from patent US10905676B2, “Angiotensin II receptor antagonist for the prevention or treatment of systemic diseases in cats” (priority 2017, dated 2021).

Key:
[1] = Safety after repeated oral administration over four weeks (Example 3); type: in vivo, cats
Protocol: 5-5. 1 kg were used in this study. The animals were allocated to 3 groups, 4 animals per group. […] The bottles with the test/control article looked identical with the exception of the animal no. in order to achieve blinding.
Blood samples for haematology and clinical chemistry were collected from the animals on days-1 (i.e. prior to the first treatment) and again on days 3, 7, 14, 28. Body weights were measured weekly and electrocardiography recording were made on days −1, 14, 21 and 28. A detailed physical examination including determination of rectal temperature and respiratory rate was carried out on days -1, 7, 14, 22 and 28. Systolic blood pressure (once daily) and heart rate (twice daily) were determined five days per week beginning prior to treatment until necropsy. The palatability of the administered article was assessed at various time points throughout treatment using a scoring system. On day 28 of the study, all animals were subjected to necropsy and stomach and kidneys were examined histopathologically. Relevant parameters were analysed using appropriate statistical procedures.

[2] = system: cats with systemic hypertension; assay: Six-month extended-use study in cats with systemic hypertension (Example 5); type: in vivo; settings: for Group mSBP, Mean: baseline 176
Protocol: The primary variables for assessment in this extensive use study were adverse events and change from baseline in retinal photographs. […] No placebo group was used in this study. […] The maintenance dose was down-titrated if the mSBP was below the target range of 120-160 mmHg at any visit. In those cases, the dose was reduced to 1 mg/kg and further reduced to 0.5 mg/kg SID if mSBP remained below the target range. […] All parameters were evaluated by the Investigator for clinical significance. The parameters were then compared to baseline, and changes were summarized by treatment group as well as by subpopulation, if appropriate.

CCCc1nc2c(C)cc(-c3nc4ccccc4n3C)cc2n1Cc1ccc(-c2ccccc2C(=O)O)cc1 [telmisartan, 4′-[2-n-propyl-4-methyl-6-(1-methylbenzimidazol-2-yl)-benzimidazol-1-ylmethyl]-biphenyl-2-carboxylic acid]
physical and ECG examinations ([1]; all time points): did not reveal treatment-related findings
histopathology of stomach and kidneys ([1]; day 28): no histopathological findings considered to be associated with the treatment
necropsy findings ([1]; day 28): No animal showed any specific finding
body weights, rectal temperature, respiratory and heart rates ([1]; during the course of the study): No significant differences
clinical findings ([1]; entire study period, 1 and 3 mg/kg once daily): No clinical findings clearly attributable to the treatment
haematological and clinical chemistry parameters including differential leukocyte count ([1]; treated groups vs concurrent controls): No treatment-related differences
rescue cases (removed due to mSBP >180 mmHg), share of end of study outcomes ([2]; 8/107 cats): 7.5%
SAEs determined to be possibly attributable to telmisartan ([2]; 11 SAEs): 10.3%
cats with Serious AEs (SAEs) ([2]; 24 cats of 107, six-month study): 22.4%
cats with Non-serious AEs (NSAEs) ([2]; 91 cats of 107, six-month study): 85.0%
cases with SBP maintained within the target range (120-180 mmHg) ([2]; 97/107 cats): 90.7%
cats scored as "better" in the IRIS blood pressure sub-staging ([2]; CKD and CKD and hyperthyroid subpopulations): 83.0% to 98.1
Mean SBP of Cat 329-454 ([2]; Visit 2 (Week 2), after 3.0 (1.5 BID) mg/kg daily): 108.3 mmHg
Mean SBP of Cat 329-454 ([2]; Visit 3 (Week 4), after 1.0 mg/kg SID): 116.0 mmHg
Mean SBP of Cat 329-454 ([2]; Visit 4 (Week 8), after 0.5 mg/kg SID): 157.7 mmHg
Mean SBP of Cat 329-454 ([2]; Visit 5 (Week 14), after 2.0 mg/kg SID): 100.0 mmHg
Mean SBP of Cat 329-454 ([2]; Visit 6 (Week 20), after 1.0 mg/kg SID): 125.3 mmHg
Mean SBP of Cat 329-454 ([2]; Visit 7 (Week 26), after 2.0 mg/kg SID): 126.0 mmHg
Group mSBP, Median ([2]; Week 4 (n = 107)): 149 mmHg
Maximum mSBP ([2]; Week 4 (n = 107)): 179 mmHg
Maximum mSBP Change from baseline ([2]; Week 4 (n = 107)): 14 ΔmmHg
Mean mSBP Change from baseline ([2]; Week 4 (n = 107)): −29 ΔmmHg
Median mSBP Change from baseline ([2]; Week 4 (n = 107)): −26 ΔmmHg
Minimum mSBP ([2]; Week 4 (n = 107)): 95 mmHg
Minimum mSBP Change from baseline ([2]; Week 4 (n = 107)): −76 ΔmmHg
Group mSBP, Mean ([2]; Week 4 (n = 107)): 148 mmHg
Group mSBP, Median ([2]; Week 8 (n = 102)): 148 mmHg
Maximum mSBP Change from baseline ([2]; Week 8 (n = 102)): 7 ΔmmHg
Mean mSBP Change from baseline ([2]; Week 8 (n = 102)): −28 ΔmmHg
Median mSBP Change from baseline ([2]; Week 8 (n = 102)): −28 ΔmmHg
Minimum mSBP ([2]; Week 8 (n = 102)): 105 mmHg
Minimum mSBP Change from baseline ([2]; Week 8 (n = 102)): −79 ΔmmHg
Group mSBP, Mean ([2]; Week 8 (n = 102)): 148 mmHg
Group mSBP, Median ([2]; Week 14 (n = 92)): 144 mmHg
Maximum mSBP Change from baseline ([2]; Week 14 (n = 92)): 25 ΔmmHg
Mean mSBP Change from baseline ([2]; Week 14 (n = 92)): −33 ΔmmHg
Median mSBP Change from baseline ([2]; Week 14 (n = 92)): −32 ΔmmHg
Minimum mSBP ([2]; Week 14 (n = 92)): 77 mmHg
Minimum mSBP Change from baseline ([2]; Week 14 (n = 92)): −115 ΔmmHg
Group mSBP, Mean ([2]; Week 14 (n = 92)): 142 mmHg
Group mSBP, Median ([2]; Week 20 (n = 81)): 148 mmHg
Maximum mSBP Change from baseline ([2]; Week 20 (n = 81)): 16 ΔmmHg
Mean mSBP Change from baseline ([2]; Week 20 (n = 81)): −30 ΔmmHg
Median mSBP Change from baseline ([2]; Week 20 (n = 81)): −28 ΔmmHg
Minimum mSBP ([2]; Week 20 (n = 81)): 89 mmHg
Minimum mSBP Change from baseline ([2]; Week 20 (n = 81)): −91 ΔmmHg
Group mSBP, Mean ([2]; Week 20 (n = 81)): 145 mmHg
Group mSBP, Median ([2]; Week 26 (n = 73)): 147 mmHg
Maximum mSBP Change from baseline ([2]; Week 26 (n = 73)): 30 ΔmmHg
Mean mSBP Change from baseline ([2]; Week 26 (n = 73)): −25 ΔmmHg
Median mSBP Change from baseline ([2]; Week 26 (n = 73)): −28 ΔmmHg
Minimum mSBP ([2]; Week 26 (n = 73)): 104 mmHg
Minimum mSBP Change from baseline ([2]; Week 26 (n = 73)): −69 ΔmmHg
Group mSBP, Mean ([2]; Week 26 (n = 73)): 150 mmHg
cats with retinal photographs improved compared to baseline ([2]; at all subsequent visits): 6.9% to 7.4
mean change in SBP from baseline (reduction) ([2]; each visit, Examples 4 and 5, FIG. 2): greater than 20 mmHg
SAE anemia and dehydration ([2]; six-month study): 6.5%
SAE anorexia, vomiting ([2]; six-month study): 5.6%
SAE weight loss ([2]; six-month study): 8.4%
cases rescued due to hypotension ([2]; two cats): 1.9%
